# Data published in article PMC10283505, “CVM-1118 (foslinanib), a 2-phenyl-4-quinolone derivative, promotes apoptosis and inhibits vasculogenic mimicry via targeting TRAP1” (Pathology and Oncology Research, 2023).
# Experiments:
# HCT-15 = test: NCI 60 cytotoxicity screening; format: cell-based; conditions: Homo sapiens; HCT-15, Colon
# COLO 205 = test: NCI 60 cytotoxicity screening; format: cell-based; conditions: Homo sapiens; COLO 205, Colon
# K-562 = test: NCI 60 cytotoxicity screening; format: cell-based; conditions: Homo sapiens, K562; K-562, Leukemia
# HCT-116 cells = test: Flow cytometry cell cycle analysis (PI); format: cell-based, human; conditions: HCT-116, 48 hours, dose-response
# Description: Figure S2 CVM-1125 induced cell cycle arrest at G2/M in HCT-116 cells
# Dose-response of CVM-1125 on cell cycle profile in HCT-116 cells was assessed by flow cytometry after treatment for 48 hours. Fluorescent signals of propidium iodide (FL2-A) of single cells were attributed to cell cycle phases and converted into percentage of the whole population of single cells (100%). The data shown are representative of at least three independent experiments.
# (1 picture or pasted object on this page, not shown here)
# Nodal = test: Western blot of Nodal (ProNodal) protein; format: cell-based, human; conditions: C8161, 10 nM, 24 h, corrected to β-actin
# Description: (§1) Cells at 80% confluence were rinsed with PBS, harvested by scrapping into a modified RIPA buffer plus protease inhibitor cocktail using 100 μL buffer per 1 × 10^6 cells. After sonication and centrifugation, the protein concentrations in the supernatants were determined using a BCA assay (Thermo Fisher Scientific). […] Nodal was detected using a mouse monoclonal anti-Nodal antibody (sc-373910; Santa Cruz; 1 μg/ml in 20 mM Tris/150 mM NaCl/0.1% [w/v] Tween 20, pH 7.4 [TBST] plus 5% BSA) followed by an anti-mouse plus horseradish peroxidase (HRP) secondary antibody (NXA931; GE Healthcare; 1 μg/ml in TBST plus 5% BSA) and enhanced chemiluminescence (ECL; GE Healthcare). Smad2 was detected using a rabbit polyclonal anti-Smad2/3 antibody (07-408; Millipore; 1 μg/ml in TBST plus 5% BSA) followed by an anti-rabbit plus HRP secondary antibody (NA934V; GE Healthcare; 1 μg/ml in TBST plus 5% BSA) and ECL. […] To assess relative changes in protein expression, the exposed films were digitized using a ChemiDoc XRS imager (Bio-Rad Laboratories) and the relative amount of protein determined against the untreated control cells normalized to a value of 1.0 using the imager’s Quantity One software package (Bio-Rad Laboratories) and corrected for loading of protein into each lane against the β-actin protein measured in the control lane.
# Smad2/P-Smad2 = test: Western blot of P-Smad2/Smad2; format: cell-based, human; conditions: C8161, 10 nM, 24 h, relative to β-actin, against control
# Description: as §1
# [1] = tested on: HT-29 colorectal adenocarcinoma cells; test: Flow cytometry cell cycle analysis (PI); format: cell-based, human; conditions: 48 h
# Description: This assay was conducted by ProQinase GmbH (Freiburg, Germany). HT-29 colorectal adenocarcinoma cells were seeded at 150,000 cells/well in 6-well cell culture plates in 5 mL complete medium and incubated at 37°C overnight. On the day of the assay, CVM-1118 at various concentrations or 0.1% DMSO were added to the cells. After 48 h incubation, cells were harvested including the supernatant, fixed in 80% methanol, and stored at −20°C overnight. The next day, cells were rehydrated in PBS for 30 min and treated with RNAse A (100 μg/mL) and propidium iodide (PI) (25 μg/mL). Cell cycle distribution was analyzed by flow cytometry (FACSCalibur, BD Biosciences), assessing approximately 10,000 events. Detection of DNA intercalated with PI was done by fluorescence detector FL3, in which amplification was set in such a manner that the first amplitude peak of the FL3 signal (FL3-A) in untreated cells (corresponding to the G1 cell population) was found at approximately 200 units. For analysis, events were plotted as histogram. The peak at ∼200 units was defined as cells in G1, events below the G1-peak were considered apoptotic cells (sub-G1), and events at ∼400 units as G2/M cells. All signals in between 200 and 400 units were defined as cells in S-Phase, and those beyond 400 units as endoreduplicated cells (endoR).
smiles,measurement,setting,value
COc1ccc2[nH]c(-c3cccc(F)c3)cc(=O)c2c1O [CVM-1125],GI50,HCT-15,35.5 nM
same,GI50,COLO 205,25.2 nM
same,GI50,K-562,24.1 nM
same,Effect on cell cycle profile,HCT-116 cells,G2/M arrest and increased sub-G1
COc1ccc2[nH]c(-c3cccc(F)c3)cc(=O)c2c1OP(=O)(O)O [CVM-1118],reduction of Nodal protein levels,Nodal,63%
same,reduction in the ratio of P-Smad2 to Smad2 protein level,Smad2/P-Smad2,76%
same,"Cell cycle profile, EndoR","[1]; HT-29, 10 nM",1.28%
same,"Cell cycle profile, G1 phase","[1]; HT-29, 10 nM",49.34%
same,"Cell cycle profile, G2/M phase","[1]; HT-29, 10 nM",25.66%
same,"Cell cycle profile, S phase","[1]; HT-29, 10 nM",23.02%
same,"Cell cycle profile, Sub-G1","[1]; HT-29, 10 nM",1.24%
same,"Cell cycle profile, EndoR","[1]; HT-29, 30 nM",1.23%
same,"Cell cycle profile, G1 phase","[1]; HT-29, 30 nM",50.63%
same,"Cell cycle profile, G2/M phase","[1]; HT-29, 30 nM",23.71%
same,"Cell cycle profile, S phase","[1]; HT-29, 30 nM",23.30%
same,"Cell cycle profile, Sub-G1","[1]; HT-29, 30 nM",1.44%
same,"Cell cycle profile, EndoR","[1]; HT-29, 100 nM",2.84%
same,"Cell cycle profile, G1 phase","[1]; HT-29, 100 nM",16.27%
same,"Cell cycle profile, G2/M phase","[1]; HT-29, 100 nM",43.42%
same,"Cell cycle profile, S phase","[1]; HT-29, 100 nM",10.90%
same,"Cell cycle profile, Sub-G1","[1]; HT-29, 100 nM",26.96%
same,"Cell cycle profile, EndoR","[1]; HT-29, 300 nM",2.45%
same,"Cell cycle profile, G1 phase","[1]; HT-29, 300 nM",1.58%
same,"Cell cycle profile, G2/M phase","[1]; HT-29, 300 nM",50.77%
same,"Cell cycle profile, S phase","[1]; HT-29, 300 nM",23.63%
same,"Cell cycle profile, Sub-G1","[1]; HT-29, 300 nM",22.46%
